Experimental data published in ChEMBL document CHEMBL3745645, “Synthesis, in vitro antitumor activity, dihydrofolate reductase inhibition, DNA intercalation and structure-activity relationship studies of 1,3,5-triazine analogues” (Bioorg Med Chem Lett, 2016).
The source made the active and inactive calls. The rule behind the calls is not given here.

Experiments:
Type in all cases: functional
[1] = test system: CAKI-1; assay: Cytotoxicity against human Caki1 cells at 10 uM after 48 hrs by SRB assay
[2] = test system: RXF 393; assay: Cytotoxicity against human RXF393 cells at 10 uM after 48 hrs by SRB assay
[3] = test system: SN12C; assay: Cytotoxicity against human SN12C cells at 10 uM after 48 hrs by SRB assay; conditions: read-out: GI
[4] = test system: TK-10; assay: Cytotoxicity against human TK10 cells at 10 uM after 48 hrs by SRB assay
[5] = Cytotoxicity against human UO31 cells at 10 uM after 48 hrs by SRB assay; conditions: UO-31, 48 h, read-out: GI
[6] = Cytotoxicity against human DU145 cells at 10 uM after 48 hrs by SRB assay; conditions: DU-145, 48 h, read-out: GI
[7] = test system: MCF7; assay: Cytotoxicity against human MCF7 cells at 10 uM after 48 hrs by SRB assay; conditions: MCF7, 48 h, read-out: GI
[8] = test system: MDA-MB-231; assay: Cytotoxicity against human MDA-MB-231 cells at 10 uM after 48 hrs by SRB assay; conditions: MDA-MB-231, 48 h, read-out: GI
[9] = Cytotoxicity against human Hs 578T cells at 10 uM after 48 hrs by SRB assay; conditions: read-out: GI
[10] = test system: BT-549; assay: Cytotoxicity against human BT549 cells at 10 uM after 48 hrs by SRB assay
[11] = test system: T47D; assay: Cytotoxicity against human T47D cells at 10 uM after 48 hrs by SRB assay; conditions: read-out: GI
[12] = test system: MDA-MB-468; assay: Cytotoxicity against human MDA-MB-468 cells at 10 uM after 48 hrs by SRB assay
[13] = test system: CCRF-CEM; assay: Cytotoxicity against human CCRF-CEM cells at 10 uM after 48 hrs by SRB assay; conditions: read-out: GI
[14] = Cytotoxicity against human HL-60(TB) cells at 10 uM after 48 hrs by SRB assay; conditions: HL-60, 48 h, read-out: GI
[15] = test system: K562; assay: Cytotoxicity against human K562 cells at 10 uM after 48 hrs by SRB assay; conditions: K562, 48 h, read-out: GI
[16] = Cytotoxicity against human MOLT4 cells at 10 uM after 48 hrs by SRB assay; conditions: MOLT-4, 48 h, read-out: GI
[17] = Cytotoxicity against human RPMI8226 cells at 10 uM after 48 hrs by SRB assay; conditions: RPMI-8226, 48 h, read-out: GI
[18] = test system: SR; assay: Cytotoxicity against human SR cells at 10 uM after 48 hrs by SRB assay; conditions: read-out: GI
[19] = test system: A549; assay: Cytotoxicity against human A549 cells at 10 uM after 48 hrs by SRB assay; conditions: A549, 48 h, read-out: GI
[20] = Cytotoxicity against human HOP62 cells at 10 uM after 48 hrs by SRB assay; conditions: HOP-62, 48 h, read-out: GI
[21] = Cytotoxicity against human HOP92 cells at 10 uM after 48 hrs by SRB assay; conditions: HOP-92, 48 h, read-out: GI
[22] = test system: NCI-H226; assay: Cytotoxicity against human NCI-H226 cells at 10 uM after 48 hrs by SRB assay; conditions: NCI-H226, 48 h, read-out: GI
[23] = test system: NCI-H322M; assay: Cytotoxicity against human NCI-H322M cells at 10 uM after 48 hrs by SRB assay; conditions: read-out: GI
[24] = test system: NCI-H460; assay: Cytotoxicity against human NCI-H460 cells at 10 uM after 48 hrs by SRB assay; conditions: NCI-H460, 48 h, read-out: GI
[25] = test system: NCI-H522; assay: Cytotoxicity against human NCI-H522 cells at 10 uM after 48 hrs by SRB assay; conditions: NCI-H522, 48 h, read-out: GI
[26] = Cytotoxicity against human COLO205 cells at 10 uM after 48 hrs by SRB assay; conditions: COLO 205, 48 h, read-out: GI
[27] = test system: HCC 2998; assay: Cytotoxicity against human HCC2998 cells at 10 uM after 48 hrs by SRB assay
[28] = Cytotoxicity against human HCT116 cells at 10 uM after 48 hrs by SRB assay; conditions: HCT-116, 48 h, read-out: GI
[29] = Cytotoxicity against human HCT15 cells at 10 uM after 48 hrs by SRB assay; conditions: HCT-15, 48 h, read-out: GI
[30] = test system: HT-29; assay: Cytotoxicity against human HT-29 cells at 10 uM after 48 hrs by SRB assay; conditions: HT-29, 48 h, read-out: GI
[31] = test system: KM12; assay: Cytotoxicity against human KM12 cells at 10 uM after 48 hrs by SRB assay; conditions: KM12, 48 h, read-out: GI
[32] = test system: SW-620; assay: Cytotoxicity against human SW620 cells at 10 uM after 48 hrs by SRB assay
[33] = Cytotoxicity against human SF268 cells at 10 uM after 48 hrs by SRB assay; conditions: SF-268, 48 h, read-out: GI
[34] = Cytotoxicity against human SF295 cells at 10 uM after 48 hrs by SRB assay; conditions: SF-295, 48 h, read-out: GI
[35] = test system: SF-539; assay: Cytotoxicity against human SF539 cells at 10 uM after 48 hrs by SRB assay
[36] = Cytotoxicity against human SNB19 cells at 10 uM after 48 hrs by SRB assay; conditions: SNB-19, 48 h, read-out: GI
[37] = Cytotoxicity against human SNB75 cells at 10 uM after 48 hrs by SRB assay; conditions: SNB-75, 48 h, read-out: GI
[38] = test system: U-251; assay: Cytotoxicity against human U251 cells at 10 uM after 48 hrs by SRB assay; conditions: U-251, 48 h, read-out: GI
[39] = Cytotoxicity against human LOXIMVI cells at 10 uM after 48 hrs by SRB assay; conditions: LOX IMVI, read-out: GI
[40] = test system: Malme-3M; assay: Cytotoxicity against human MALME-3M cells at 10 uM after 48 hrs by SRB assay; conditions: read-out: GI
[41] = test system: M14; assay: Cytotoxicity against human M14 cells at 10 uM after 48 hrs by SRB assay; conditions: M14, 48 h, read-out: GI
[42] = test system: MDA-MB-435; assay: Cytotoxicity against human MDA-MB-435 cells at 10 uM after 48 hrs by SRB assay; conditions: MDA-MB-435, 48 h, read-out: GI
[43] = test system: SK-MEL-2; assay: Cytotoxicity against human SK-MEL-2 cells at 10 uM after 48 hrs by SRB assay
[44] = test system: SK-MEL-28; assay: Cytotoxicity against human SK-MEL-28 cells at 10 uM after 48 hrs by SRB assay
[45] = test system: SK-MEL-5; assay: Cytotoxicity against human SK-MEL-5 cells at 10 uM after 48 hrs by SRB assay; conditions: SK-MEL-5, 48 h, read-out: GI
[46] = test system: UACC-257; assay: Cytotoxicity against human UACC257 cells at 10 uM after 48 hrs by SRB assay
[47] = Cytotoxicity against human IGROV1 cells at 10 uM after 48 hrs by SRB assay; conditions: IGROV-1, 48 h, read-out: GI
[48] = Cytotoxicity against human OVCAR3 cells at 10 uM after 48 hrs by SRB assay; conditions: OVCAR-3, 48 h, read-out: GI
[49] = Cytotoxicity against human OVCAR4 cells at 10 uM after 48 hrs by SRB assay; conditions: OVCAR-4, 48 h, read-out: GI
[50] = test system: OVCAR-5; assay: Cytotoxicity against human OVCAR5 cells at 10 uM after 48 hrs by SRB assay
[51] = Cytotoxicity against human OVCAR8 cells at 10 uM after 48 hrs by SRB assay; conditions: OVCAR-8, 48 h, read-out: GI
[52] = Cytotoxicity against human NCI-ADR-RES cells at 10 uM after 48 hrs by SRB assay; conditions: read-out: GI
[53] = Cytotoxicity against human SKOV3 cells at 10 uM after 48 hrs by SRB assay; conditions: SK-OV-3, 48 h, read-out: GI
[54] = test system: 786-0; assay: Cytotoxicity against human 786-0 cells at 10 uM after 48 hrs by SRB assay
[55] = test system: A498; assay: Cytotoxicity against human A498 cells at 10 uM after 48 hrs by SRB assay; conditions: A498, 48 h, read-out: GI
[56] = test system: ACHN; assay: Cytotoxicity against human ACHN cells at 10 uM after 48 hrs by SRB assay; conditions: read-out: GI

Cc1nc2cc(Nc3nc(Nc4ccc(F)cc4)nc(Nc4ncccn4)n3)ccc2n1Cc1ccccc1
growth inhibition (GI) [1]: inactive
growth inhibition (GI) [2]: inactive
inhibition of growth at 10 µM [3]: 8.42%
growth inhibition (GI) [4]: inactive
inhibition of growth at 10 µM [5]: 27%
inhibition of growth at 10 µM [6]: 4.12%
inhibition of growth at 10 µM [7]: 20.1%
inhibition of growth at 10 µM [8]: 7.37%
inhibition of growth at 10 µM [9]: 20.9%
growth inhibition (GI) [10]: inactive
inhibition of growth at 10 µM [11]: 25.1%
growth inhibition (GI) [12]: inactive
inhibition of growth at 10 µM [13]: 63.2%
inhibition of growth at 10 µM [14]: 30.1%
inhibition of growth at 10 µM [15]: 41.3%
inhibition of growth at 10 µM [16]: 44.6%
inhibition of growth at 10 µM [17]: 57.4%
inhibition of growth at 10 µM [18]: 51.6%
inhibition of growth at 10 µM [19]: 17.8%
inhibition of growth at 10 µM [20]: 2.38%
inhibition of growth at 10 µM [21]: 18.4%
inhibition of growth at 10 µM [22]: 11.5%
inhibition of growth at 10 µM [23]: 5.47%
inhibition of growth at 10 µM [24]: 5.2%
inhibition of growth at 10 µM [25]: 22.5%
inhibition of growth at 10 µM [26]: 10.5%
growth inhibition (GI) [27]: inactive
inhibition of growth at 10 µM [28]: 15.8%
inhibition of growth at 10 µM [29]: 12.7%
inhibition of growth at 10 µM [30]: 14.8%
inhibition of growth at 10 µM [31]: 11.6%
growth inhibition (GI) [32]: inactive
inhibition of growth at 10 µM [33]: 11.2%
inhibition of growth at 10 µM [34]: 15.6%
growth inhibition (GI) [35]: inactive
inhibition of growth at 10 µM [36]: 7.38%
inhibition of growth at 10 µM [37]: 15.6%
inhibition of growth at 10 µM [38]: 13.2%
inhibition of growth at 10 µM [39]: 3.01%
inhibition of growth at 10 µM [40]: 7.94%
inhibition of growth at 10 µM [41]: 5.65%
inhibition of growth at 10 µM [42]: 9.24%
growth inhibition (GI) [43]: inactive
growth inhibition (GI) [44]: inactive
inhibition of growth at 10 µM [45]: 6.35%
growth inhibition (GI) [46]: inactive
inhibition of growth at 10 µM [47]: 24%
inhibition of growth at 10 µM [48]: 9.64%
inhibition of growth at 10 µM [49]: 20.2%
growth inhibition (GI) [50]: inactive
inhibition of growth at 10 µM [51]: 8.83%
inhibition of growth at 10 µM [52]: 10.5%
inhibition of growth at 10 µM [53]: 2.64%
growth inhibition (GI) [54]: inactive
inhibition of growth at 10 µM [55]: 11.5%
inhibition of growth at 10 µM [56]: 1.6%
